Tests used:
[1] = system: Non Small Cell Lung Cancer (NSCLC) tissue; assay: PamChip kinase activity of NSCLC tumor tissue lysates with and without inhibitor; type: biochemical; conditions: 1 μmol/L inhibitor, short vs long survival patients, data not shown
[2] = system: UT-SCC-9, UT-SCC-27, UT-SCC-54C, and UT-SCC-76; assay: PamChip kinase inhibition profiles of 4 patient derived head and neck squamous cell carcinoma cell lines; type: biochemical; conditions: selected set of peptides, FIG. 3b
Procedure: Cells were harvested and were lysed in Mammalian Extraction Buffer (M-PER, Pierce) containing phosphatase and protease inhibitors (HALT, Pierce). Five microliter of the lysis solution was pipetted into a reaction mixture composed of 1×ABL buffer (New England Biolabs, cat.nr B6050S), 0.1% Bovine Serum Albumin, 100 μM ATP, 20 μg/ml phosphotyrosine antibody to an end volume of 40 microliter. Before incubation a blocking step was carried out on the substrate arrays with 0.2% bovine serum albumin. […] Real time data were obtained by measuring fluorescence of the bound anti-phosphotyrosine antibody after each 5 cycles. Image quantification and data processing was conducted with dedicated Pamgene software (Evolve and Bionavigator).
The 4 cell lines chosen, UT-SCC-9, UT-SCC-27, UT-SCC-54C, and UT-SCC-76 are patient derived cell lines, known to respond differently to radiation (in a model for therapy in head and neck cancer, squamous cell carcinomas, especially). […] The data shown are from a selected set of peptides of which the ratios of phosphorylation in the absence (0) and presence of the inhibitor are represented.

**Q.** `COc1cc2ncnc(Nc3ccc(F)c(Cl)c3)c2cc1OCCCN1CCOCC1` [Gefitinib] was tested. Which “differences between the phosphorylation profiles with and without the protein kinase inhibitor” value [1] did it give?
**A.** a number of essential differences

**Q.** For `Cc1ccc(-c2nn(C(C)(C)C)c3ncnc(N)c23)cc1` [PP1], which “inhibition profiles (ratios of phosphorylation in the absence and presence of the inhibitor), differences between cell lines” value [2] is on record?
**A.** pronounced differences
